In ChEMBL document CHEMBL4000156 (Eur J Med Chem, 2016):

How the values were obtained:
[1] = molecular target: Xanthine dehydrogenase/oxidase (Homo sapiens, UniProt P47989); assay: Inhibition of Xanthine oxidase (unknown origin) using xanthine as substrate preincubated for 3 mins followed by substrate addition measured every 15 secs for 7 mins by spectrophotometry
[2] = Antioxidant activity assessed as DPPH radical scavenging activity incubated for 30 mins under dark conditions by spectrophotometry; format: functional
[3] = test system: RAW264.7; assay: Antioxidant activity in LPS induced mouse RAW264.7 cells assessed as superoxide anion scavenging activity at 10 uM after 24 hrs by HE probe based HPLC-MS analysis relative to control; format: functional

Xanthine dehydrogenase/oxidase, sequence (P47989 whole entry): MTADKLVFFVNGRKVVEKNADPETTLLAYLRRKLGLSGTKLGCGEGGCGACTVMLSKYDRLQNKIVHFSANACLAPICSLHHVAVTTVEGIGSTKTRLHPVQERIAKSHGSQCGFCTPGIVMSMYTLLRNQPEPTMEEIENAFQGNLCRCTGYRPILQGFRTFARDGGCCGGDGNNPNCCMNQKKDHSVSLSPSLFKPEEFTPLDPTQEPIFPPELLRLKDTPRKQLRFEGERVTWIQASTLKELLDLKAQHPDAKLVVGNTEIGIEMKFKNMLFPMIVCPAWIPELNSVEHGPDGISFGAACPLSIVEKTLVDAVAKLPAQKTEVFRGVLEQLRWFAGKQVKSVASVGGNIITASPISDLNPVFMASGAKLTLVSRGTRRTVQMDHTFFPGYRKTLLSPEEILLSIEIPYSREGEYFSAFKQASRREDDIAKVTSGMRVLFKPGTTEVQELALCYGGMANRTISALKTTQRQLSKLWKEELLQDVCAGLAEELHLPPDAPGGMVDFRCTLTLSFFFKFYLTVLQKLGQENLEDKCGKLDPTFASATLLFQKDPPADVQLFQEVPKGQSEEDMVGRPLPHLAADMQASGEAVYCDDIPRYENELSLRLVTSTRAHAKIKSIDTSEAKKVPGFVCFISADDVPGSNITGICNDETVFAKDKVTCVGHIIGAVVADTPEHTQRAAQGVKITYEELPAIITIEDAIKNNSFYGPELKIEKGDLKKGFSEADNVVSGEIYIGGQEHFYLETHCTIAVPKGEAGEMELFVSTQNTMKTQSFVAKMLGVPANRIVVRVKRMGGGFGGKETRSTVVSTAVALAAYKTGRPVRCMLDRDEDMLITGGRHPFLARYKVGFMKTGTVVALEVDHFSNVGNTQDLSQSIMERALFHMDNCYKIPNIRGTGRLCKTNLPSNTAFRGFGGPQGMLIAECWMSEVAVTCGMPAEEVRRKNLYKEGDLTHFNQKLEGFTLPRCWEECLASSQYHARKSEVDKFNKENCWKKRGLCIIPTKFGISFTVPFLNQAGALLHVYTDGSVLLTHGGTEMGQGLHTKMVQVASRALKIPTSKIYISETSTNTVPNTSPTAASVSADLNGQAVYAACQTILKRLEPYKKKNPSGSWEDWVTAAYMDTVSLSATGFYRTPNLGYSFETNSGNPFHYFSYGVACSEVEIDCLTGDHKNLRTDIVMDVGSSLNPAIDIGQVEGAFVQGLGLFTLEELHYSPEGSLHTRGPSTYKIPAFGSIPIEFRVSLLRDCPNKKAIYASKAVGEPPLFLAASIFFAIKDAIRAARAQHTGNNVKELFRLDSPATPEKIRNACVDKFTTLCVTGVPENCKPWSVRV

Compound	IC50 [1] [µM]	IC50 [2] [µM]	Activity [3] [%]
COC(=O)[C@H](Cc1ccccc1)NC(=O)/C=C/c1ccc(OC)c2oc(-c3ccc(OC)c(OC)c3)cc12	> 60	> 100	
C[C@H](NC(=O)/C=C/c1ccc(O)c2oc(-c3ccc(O)c(O)c3)cc12)C(=O)O			41.65
COC(=O)[C@H](C)NC(=O)/C=C/c1ccc(OC)c2oc(-c3ccc(OC)c(OC)c3)cc12	> 60	> 100	
O=C(/C=C/c1ccc(O)c2oc(-c3ccc(O)c(O)c3)cc12)N[C@@H](Cc1ccccc1)C(=O)O			81.27
O=C(/C=C/c1ccc(O)c2oc(-c3ccc(O)c(O)c3)cc12)N[C@@H](Cc1ccc(O)cc1)C(=O)O			83.41
COC(=O)[C@H](C)NC(=O)/C=C/c1ccc(O)c2oc(-c3ccc(O)c(O)c3)cc12			60.54
O=C(/C=C/c1ccc(O)c2oc(-c3ccc(O)c(O)c3)cc12)O[C@H](Cc1ccc(O)c(O)c1)C(=O)O	8.26	6.87	37.82
O=C(/C=C/c1ccc(O)c2oc(-c3ccc(O)c(O)c3)cc12)N[C@H](Cc1ccc(O)c(O)c1)C(=O)O			80.81
COC(=O)[C@@H](Cc1ccc(O)c(O)c1)NC(=O)/C=C/c1ccc(O)c2oc(-c3ccc(O)c(O)c3)cc12			74.16
COC(=O)[C@H](Cc1ccc(O)c(O)c1)NC(=O)/C=C/c1ccc(O)c2oc(-c3ccc(O)c(O)c3)cc12			78.59
VITAMIN E			53.2
COC(=O)[C@@H](Cc1c[nH]c2ccccc12)NC(=O)/C=C/c1ccc(OC)c2oc(-c3ccc(OC)c(OC)c3)cc12	> 60	> 100	
